{"source": "PubChem BioAssay (NCI)", "assay_in_all_cases": "DTP human tumour cell line panel, 48 h", "key": {"OVCAR-4 ovarian": {"system": "OVCAR-4 ovarian"}, "HCT-116 colon": {"system": "HCT-116 colon"}, "SNB-19 CNS": {"system": "SNB-19 CNS"}, "SN12C renal": {"system": "SN12C renal"}, "SR leukemia": {"system": "SR leukemia"}, "HOP-92 NSCLC": {"system": "HOP-92 NSCLC"}, "SF-268 CNS": {"system": "SF-268 CNS"}, "HS 578T breast": {"system": "HS 578T breast"}, "T-47D breast": {"system": "T-47D breast"}, "U251 CNS": {"system": "U251 CNS"}, "PC-3 prostate": {"system": "PC-3 prostate"}, "MDA-MB-231 breast": {"system": "MDA-MB-231 breast"}, "HT29 colon": {"system": "HT29 colon"}, "KM12 colon": {"system": "KM12 colon"}, "ACHN renal": {"system": "ACHN renal"}, "TK-10 renal": {"system": "TK-10 renal"}, "SW-620 colon": {"system": "SW-620 colon"}, "RXF 393 renal": {"system": "RXF 393 renal"}, "786-0 renal": {"system": "786-0 renal"}}, "note": "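96-well plates; 48 h exposure; 5 concentrations. Endpoints by linear interpolation between flanking doses. Not reached: highest tested concentration assigned. Definition used: TGI = concentration required for complete inhibition of growth.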"}
{"smiles": "c1ccc(/C(=N/Nc2ccccn2)c2cccnn2)cc1", "values": [{"measurement": "TGI", "setting": "OVCAR-4 ovarian", "result": "> 100", "unit": "µM"}, {"measurement": "TGI", "setting": "HCT-116 colon", "result": "> 100", "unit": "µM"}, {"measurement": "TGI", "setting": "SNB-19 CNS", "result": "> 86.9", "unit": "µM"}, {"measurement": "TGI", "setting": "SN12C renal", "result": 40.7, "unit": "µM"}, {"measurement": "TGI", "setting": "SR leukemia", "result": "> 20.8", "unit": "µM"}, {"measurement": "TGI", "setting": "HOP-92 NSCLC", "result": "> 39.5", "unit": "µM"}, {"measurement": "TGI", "setting": "SF-268 CNS", "result": 6.42, "unit": "µM"}, {"measurement": "TGI", "setting": "HS 578T breast", "result": "> 79", "unit": "µM"}, {"measurement": "TGI", "setting": "T-47D breast", "result": "> 100", "unit": "µM"}, {"measurement": "TGI", "setting": "U251 CNS", "result": "> 100", "unit": "µM"}, {"measurement": "TGI", "setting": "PC-3 prostate", "result": "> 100", "unit": "µM"}, {"measurement": "TGI", "setting": "MDA-MB-231 breast", "result": "> 75.5", "unit": "µM"}, {"measurement": "TGI", "setting": "HT29 colon", "result": "> 58.8", "unit": "µM"}, {"measurement": "TGI", "setting": "KM12 colon", "result": "> 100", "unit": "µM"}, {"measurement": "TGI", "setting": "ACHN renal", "result": 24.5, "unit": "µM"}, {"measurement": "TGI", "setting": "TK-10 renal", "result": "> 100", "unit": "µM"}, {"measurement": "TGI", "setting": "SW-620 colon", "result": "> 78.8", "unit": "µM"}, {"measurement": "TGI", "setting": "RXF 393 renal", "result": "> 100", "unit": "µM"}, {"measurement": "TGI", "setting": "786-0 renal", "result": "> 100", "unit": "µM"}]}
